PMC10167036, “The discovery and characterization of AeHGO in the branching route from shikonin biosynthesis to shikonofuran in Arnebia euchroma” (Frontiers in Plant Science, 2023)

System: T1, AeHGO
T1 construct: full-length, N-terminal His-tag (pCold II), E. coli Transetta, IMAC purified, tag cut not mentioned; cloning primers encode N-terminus MGNSAE and C-terminus NTLKTA
Experiment: UPLC product assay, Michaelis-Menten fit
Format: biochemical, Arnebia euchroma
Details: basic assay 50 mM MES-Tris pH 7.5, 37°C
Description: UPLC product assay, Michaelis-Menten fit on AeHGO

[1] = oxidation, 500 µM NADP+, apparent

## CC(C)=CCC/C(=C/Cc1cc(O)ccc1O)CO [compound 1, (Z)-3’’-OH-GHQ]
[1]
  Km: 24.7 ± 5.18 µM

## CC(C)=CCC/C(=C\Cc1cc(O)ccc1O)CO [compound 2, (E)-3’’-OH-GHQ]
[1]
  Km: 18.7 ± 5.39 µM

## CC(C)=CCC/C(C=O)=C\Cc1cc(O)ccc1O [compound 3, (E)-3’’-oxo-GHQ]
reduction, 500 µM NADPH, apparent, fit at low substrate concentrations because of substrate inhibition
  Km: 9.96 ± 2.87 µM

## NC(=O)c1ccc[n+]([C@@H]2O[C@H](COP(=O)(O)OP(=O)(O)OC[C@H]3O[C@@H](n4cnc5c(N)ncnc54)[C@H](OP(=O)(O)O)[C@@H]3O)[C@@H](O)[C@H]2O)c1 [NADP^+]
oxidation, 500 µM (Z)-3''-OH-GHQ
  Km: 17.8 ± 5.62 µM
